From PubChem BioAssay (NCI)
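Assay format: 96-well plates, 48-hour exposure. The concentration for full growth arrest is given as TGI.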

What was measured:
Assay in all cases: DTP human tumour cell line panel, 48 h
786-0 renal = tested on: 786-0 renal
A498 renal = tested on: A498 renal
A549 NSCLC = tested on: A549 NSCLC
ACHN renal = tested on: ACHN renal
CAKI-1 renal = tested on: CAKI-1 renal
CCRF-CEM leukemia = tested on: CCRF-CEM leukemia
COLO 205 colon = tested on: COLO 205 colon
DLD-1 colon = tested on: DLD-1 colon
DMS 114 small cell lung = tested on: DMS 114 small cell lung
DMS 273 small cell lung = tested on: DMS 273 small cell lung
EKVX NSCLC = tested on: EKVX NSCLC
HCC-2998 colon = tested on: HCC-2998 colon
HCT-116 colon = tested on: HCT-116 colon
HCT-15 colon = tested on: HCT-15 colon
HL-60(TB) leukemia = tested on: HL-60(TB) leukemia
HOP-18 NSCLC = tested on: HOP-18 NSCLC
HOP-62 NSCLC = tested on: HOP-62 NSCLC
HOP-92 NSCLC = tested on: HOP-92 NSCLC
HT29 colon = tested on: HT29 colon
IGROV1 ovarian = tested on: IGROV1 ovarian
K-562 leukemia = tested on: K-562 leukemia
KM12 colon = tested on: KM12 colon
KM20L2 colon = tested on: KM20L2 colon
LOX IMVI melanoma = tested on: LOX IMVI melanoma
LXFL 529 NSCLC = tested on: LXFL 529 NSCLC
M14 melanoma = tested on: M14 melanoma
M19-MEL melanoma = tested on: M19-MEL melanoma
MALME-3M melanoma = tested on: MALME-3M melanoma
MOLT-4 leukemia = tested on: MOLT-4 leukemia
NCI-H226 lung = tested on: NCI-H226 lung
NCI-H23 lung = tested on: NCI-H23 lung
NCI-H460 lung = tested on: NCI-H460 lung
NCI-H522 lung = tested on: NCI-H522 lung
OVCAR-3 ovarian = tested on: OVCAR-3 ovarian
OVCAR-4 ovarian = tested on: OVCAR-4 ovarian
OVCAR-5 ovarian = tested on: OVCAR-5 ovarian
OVCAR-8 ovarian = tested on: OVCAR-8 ovarian
RPMI-8226 leukemia = tested on: RPMI-8226 leukemia
RXF 393 renal = tested on: RXF 393 renal
SF-268 CNS = tested on: SF-268 CNS
SF-295 CNS = tested on: SF-295 CNS
SF-539 CNS = tested on: SF-539 CNS
SK-MEL-2 melanoma = tested on: SK-MEL-2 melanoma
SK-MEL-28 melanoma = tested on: SK-MEL-28 melanoma
SK-MEL-5 melanoma = tested on: SK-MEL-5 melanoma
SK-OV-3 ovarian = tested on: SK-OV-3 ovarian
SN12C renal = tested on: SN12C renal
SNB-19 CNS = tested on: SNB-19 CNS
SNB-75 CNS = tested on: SNB-75 CNS
SNB-78 CNS = tested on: SNB-78 CNS
SR leukemia = tested on: SR leukemia
SW-620 colon = tested on: SW-620 colon
TK-10 renal = tested on: TK-10 renal
U251 CNS = tested on: U251 CNS
UACC-257 melanoma = tested on: UACC-257 melanoma
UACC-62 melanoma = tested on: UACC-62 melanoma
UO-31 renal = tested on: UO-31 renal
XF 498 CNS = tested on: XF 498 CNS

For `N#Cc1cc([N+](=O)[O-])ccc1NC(=O)C(F)(F)F`, the TGI (786-0 renal) was > 89.5 µM, the TGI (A498 renal) was > 100 µM and the TGI (A549 NSCLC) was > 100 µM. For the same compound, the TGI (ACHN renal) was > 100 µM, the TGI (CAKI-1 renal) was > 100 µM and the TGI (CCRF-CEM leukemia) was > 100 µM. The TGI (COLO 205 colon) was 44.6 µM, the TGI (DLD-1 colon) was > 100 µM and the TGI (DMS 114 small cell lung) was > 56.1 µM. For the same compound, the TGI (DMS 273 small cell lung) was > 100 µM, the TGI (EKVX NSCLC) was > 100 µM and the TGI (HCC-2998 colon) was > 100 µM. The TGI (HCT-116 colon) was > 61.5 µM, the TGI (HCT-15 colon) was > 58.5 µM and the TGI (HL-60(TB) leukemia) was > 100 µM. For the same compound, the TGI (HOP-18 NSCLC) was > 100 µM, the TGI (HOP-62 NSCLC) was > 100 µM and the TGI (HOP-92 NSCLC) was > 100 µM. For the same compound, the TGI (HT29 colon) was > 67.6 µM, the TGI (IGROV1 ovarian) was > 100 µM and the TGI (K-562 leukemia) was > 100 µM. The TGI (KM12 colon) was > 100 µM, the TGI (KM20L2 colon) was > 100 µM and the TGI (LOX IMVI melanoma) was > 49.7 µM. For the same compound, the TGI (LXFL 529 NSCLC) was > 100 µM, the TGI (M14 melanoma) was > 100 µM and the TGI (M19-MEL melanoma) was > 100 µM. For the same compound, the TGI (MALME-3M melanoma) was > 100 µM, the TGI (MOLT-4 leukemia) was > 100 µM and the TGI (NCI-H226 lung) was > 100 µM. The TGI (NCI-H23 lung) was > 100 µM, the TGI (NCI-H460 lung) was > 57.4 µM and the TGI (NCI-H522 lung) was > 100 µM. The TGI (OVCAR-3 ovarian) was > 100 µM, the TGI (OVCAR-4 ovarian) was > 100 µM and the TGI (OVCAR-5 ovarian) was > 100 µM. The TGI (OVCAR-8 ovarian) was > 100 µM, the TGI (RPMI-8226 leukemia) was > 66.9 µM and the TGI (RXF 393 renal) was > 100 µM. For the same compound, the TGI (SF-268 CNS) was > 100 µM, the TGI (SF-295 CNS) was > 100 µM and the TGI (SF-539 CNS) was > 100 µM. The TGI (SK-MEL-2 melanoma) was > 100 µM, the TGI (SK-MEL-28 melanoma) was > 100 µM and the TGI (SK-MEL-5 melanoma) was > 100 µM. For the same compound, the TGI (SK-OV-3 ovarian) was > 100 µM, the TGI (SN12C renal) was > 100 µM and the TGI (SNB-19 CNS) was > 100 µM. The TGI (SNB-75 CNS) was > 95.9 µM, the TGI (SNB-78 CNS) was > 100 µM and the TGI (SR leukemia) was > 100 µM. The TGI (SW-620 colon) was > 55.8 µM, the TGI (TK-10 renal) was > 100 µM and the TGI (U251 CNS) was > 100 µM. The TGI (UACC-257 melanoma) was > 100 µM, the TGI (UACC-62 melanoma) was > 100 µM and the TGI (UO-31 renal) was > 100 µM. For the same compound, the TGI (XF 498 CNS) was > 100 µM.

`COc1ccc(N2C(=O)c3c(c4[nH]c5ccc(OC)cc5c4c4ccc(C(C)(C)C)cc34)C2=O)cc1` was tested, and the TGI (786-0 renal) was > 100 µM, the TGI (A549 NSCLC) was > 100 µM and the TGI (ACHN renal) was > 100 µM. For the same compound, the TGI (CCRF-CEM leukemia) was > 100 µM, the TGI (COLO 205 colon) was > 100 µM and the TGI (DLD-1 colon) was > 100 µM. The TGI (DMS 114 small cell lung) was > 100 µM, the TGI (DMS 273 small cell lung) was > 100 µM and the TGI (EKVX NSCLC) was > 100 µM. The TGI (HCC-2998 colon) was > 100 µM, the TGI (HCT-116 colon) was > 100 µM and the TGI (HCT-15 colon) was > 100 µM. The TGI (HL-60(TB) leukemia) was > 100 µM, the TGI (HOP-18 NSCLC) was > 100 µM and the TGI (HOP-62 NSCLC) was > 100 µM. The TGI (HOP-92 NSCLC) was > 100 µM, the TGI (HT29 colon) was > 100 µM and the TGI (IGROV1 ovarian) was > 100 µM. The TGI (K-562 leukemia) was > 100 µM, the TGI (KM12 colon) was > 100 µM and the TGI (LXFL 529 NSCLC) was > 100 µM. For the same compound, the TGI (M14 melanoma) was > 100 µM, the TGI (M19-MEL melanoma) was > 100 µM and the TGI (MALME-3M melanoma) was > 100 µM. For the same compound, the TGI (MOLT-4 leukemia) was > 100 µM, the TGI (NCI-H226 lung) was > 100 µM and the TGI (NCI-H23 lung) was > 100 µM. For the same compound, the TGI (NCI-H460 lung) was > 100 µM, the TGI (NCI-H522 lung) was > 100 µM and the TGI (OVCAR-3 ovarian) was > 100 µM. For the same compound, the TGI (OVCAR-4 ovarian) was > 100 µM, the TGI (OVCAR-5 ovarian) was > 100 µM and the TGI (OVCAR-8 ovarian) was > 100 µM. The TGI (RPMI-8226 leukemia) was > 100 µM, the TGI (SF-268 CNS) was > 100 µM and the TGI (SF-295 CNS) was > 100 µM. The TGI (SF-539 CNS) was > 100 µM, the TGI (SK-MEL-2 melanoma) was > 100 µM and the TGI (SK-MEL-28 melanoma) was > 100 µM. For the same compound, the TGI (SK-MEL-5 melanoma) was > 100 µM, the TGI (SK-OV-3 ovarian) was > 100 µM and the TGI (SN12C renal) was > 100 µM. The TGI (SNB-19 CNS) was > 100 µM, the TGI (SNB-75 CNS) was > 100 µM and the TGI (SNB-78 CNS) was > 100 µM. The TGI (TK-10 renal) was > 100 µM, the TGI (U251 CNS) was > 100 µM and the TGI (UACC-257 melanoma) was > 100 µM. The TGI (UO-31 renal) was > 100 µM and the TGI (XF 498 CNS) was > 100 µM.
